Measurements taken from patent US9199977B2, “Crystal having crystal habits and pharmaceutical composition obtained by processing the crystal” (POLA PHARMA INC., priority 2012, dated 2015).

Experiments:
[1] = Elution or dissolution test of luliconazole crystals in anhydrous ethanol; assay type: physicochemical; conditions: 1 g luliconazole in 500 mL anhydrous ethanol, constant stirring, room temperature
Experimental: (§1) Ethanol containing 10% water was added to luliconazole, followed by being heated, stirred, and filtrated while applying the heat. A filtrate was quickly cooled with an ice bath and the wall surface was scraped with a spatula to perform the recrystallization. Crystals were collected by filtration, followed by being dried by using phosphorus pentaoxide to obtain Crystal 1 of the present invention. In distinct Comparative Example, the same process or treatment was performed while replacing the solvent with a mixture of ethyl acetate/n-hexane (5:1) to obtain Crystal of Comparative Example. The elution or dissolution test was performed for the two types of the crystals to investigate the elution or dissolution profile. After confirming the dissolution of all crystals, the Z isomer and the SE isomer, which were the isomers generated or formed in the solution, were analyzed and quantitatively measured by HPLC assay.
(§2) In the elution or dissolution test, 500 mL of anhydrous ethanol was used as the solvent, and 1 g of luliconazole was dissolved under constant stirring at room temperature. The time, which was required for the dissolution, was simultaneously measured. According to Table 1, it is appreciated that the time required for the dissolution is short for Crystal 1, and thus the generation of the Z isomer and the SE isomer as the isomers is suppressed in the dissolving step.

[2] = HPLC quantification of Z and SE isomers generated in the solution after dissolution; assay type: physicochemical; conditions: in ethanol solution after dissolution of all crystals
Experimental: as §1, §2
The condition for HPLC was as follows. Column: CHIRALCEL OD-RH 4.6×150 mm, column temperature: 35° C., mobile phase: mixture of methanol/2% aqueous solution of potassium hexafluorophosphate (85:15, v/v), flow rate: 0.6 mL/min., detection: 295 nm).

SMILES: N#C/C(=C1/SC[C@@H](c2ccc(Cl)cc2Cl)S1)n1ccnc1 [Crystal 1, luliconazole]
- Time required until dissolution [1]: 200 min
- Amount of generation of SE isomer [2]: 0.06%
- Amount of generation of Z isomer [2]: 0.06%

SMILES: N#C/C(=C1/SC[C@@H](c2ccc(Cl)cc2Cl)S1)n1ccnc1 [Crystal of Comp. Ex., luliconazole]
- Time required until dissolution [1]: 300 min
- Amount of generation of SE isomer [2]: 0.09%
- Amount of generation of Z isomer [2]: 0.13%
